Measured values as given in the supplement of paper PMC8671470.

Assays:
Conditions in all cases: 72 h
HEL [1] = system: HEL
Outline: (§1)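 Fifteen myeloid leukaemia cell lines were seeded in RPMI 1640 at a density titrated to the linear growth range. Each line went into 384-well plates with compounds acoustically pre-printed at five tenfold doses from 1 to 10,000 nM, in duplicate, and was incubated for 72 h at 37 °C with 5% CO2. Luminescent ATP viability was normalised to vehicle and to a positive control at 10 µM. The IC50 came from four-parameter log-logistic dose–response fits.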

NOMO-1 [2] = system: NOMO-1
Outline: as §1

MV4-11 [3] = system: MV4-11
Outline: as §1

ML-2 [4] = system: ML-2
Outline: as §1

SHI-1 [5] = system: SHI-1
Outline: as §1

LAMA-84 [6] = system: LAMA-84
Outline: as §1

K-562 [7] = system: K-562
Outline: as §1

KG-1 [8] = system: KG-1
Outline: as §1

KCL-22 [9] = system: KCL-22
Outline: as §1

KU-812 [10] = system: KU-812
Outline: as §1

MOLM-13 [11] = system: MOLM-13
Outline: as §1

Mono-Mac-6 [12] = system: Mono-Mac-6
Outline: as §1

THP-1 [13] = system: THP-1
Outline: as §1

HL-60 [14] = system: HL-60
Outline: as §1

BV-173 [15] = system: BV-173
Outline: as §1

HEL [16] = assay: cell viability (% survival relative to DMSO control, bortezomib = 0%); higher = less cytotoxic
Outline: (§2)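 Percent survival is reported as the mean of duplicate wells. Cells from 10 AML and 5 CML lines were plated in 384-well plates containing compounds at 1, 10, 100, 1000 or 10000 nM and kept for 72 h at 37 °C in 5% CO2. Readout used CellTiter-Glo luminescence, scaled so that vehicle equals 100% and a 10 µM positive control equals 0%.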

NOMO-1 [17] = assay: as above
Outline: as §2

MV4-11 [18] = assay: as above
Outline: as §2

ML-2 [19] = assay: as above
Outline: as §2

SHI-1 [20] = assay: as above
Outline: as §2

LAMA-84 [21] = assay: as above
Outline: as §2

K-562 [22] = assay: as above
Outline: as §2

KG-1 [23] = assay: as above
Outline: as §2

KCL-22 [24] = assay: as above
Outline: as §2

KU-812 [25] = assay: as above
Outline: as §2

MOLM-13 [26] = assay: as above
Outline: as §2

Mono-Mac-6 [27] = assay: as above
Outline: as §2

THP-1 [28] = assay: as above
Outline: as §2

HL-60 [29] = assay: as above
Outline: as §2

BV-173 [30] = assay: as above
Outline: as §2

CN(C)CCNC(=O)c1cccn2c(=O)c3cc4ccccc4cc3nc12 [Bmh-21]
Conditions | IC50 (cell viability) [nM]
BV-173 [15] | 293
HEL [1] | 331
HL-60 [14] | > 10000
K-562 [7] | 9110
KCL-22 [9] | 312
KG-1 [8] | 407
KU-812 [10] | 479
LAMA-84 [6] | 486
ML-2 [4] | 314
MOLM-13 [11] | 2380
MV4-11 [3] | 2780
Mono-Mac-6 [12] | 347
NOMO-1 [2] | 923
SHI-1 [5] | > 10000
THP-1 [13] | 910

cell viability [%]
Conditions | 1 nM | 10 nM | 100 nM | 1000 nM | 10000 nM
BV-173 [30] | 105 | 98.6 | 95.8 | -0.204 | -0.415
HEL [16] | 110 | 93.8 | 93.8 | 8 | 0.459
HL-60 [29] | 102 | 108 | 93.6 | 107 | 77.7
K-562 [22] | 108 | 84.5 | 94.1 | 92.9 | 44.3
KCL-22 [24] | 115 | 113 | 98.7 | 0.317 | 0.85
KG-1 [23] | 104 | 101 | 104 | 9.79 | 0.81
KU-812 [25] | 98.1 | 105 | 108 | 15.5 | -0.163
LAMA-84 [21] | 103 | 107 | 95.2 | 21.2 | 1.47
ML-2 [19] | 111 | 106 | 99.4 | -0.0196 | -0.0121
MOLM-13 [26] | 123 | 92.6 | 102 | 87.6 | 22.1
MV4-11 [18] | 107 | 85.5 | 90.4 | 78.8 | 11.1
Mono-Mac-6 [27] | 89.8 | 101 | 106 | 0.313 | 0.0551
NOMO-1 [17] | 106 | 101 | 101 | 45.9 | -0.0945
SHI-1 [20] | 108 | 102 | 81.7 | 94 | 53.7
THP-1 [28] | 102 | 96.4 | 104 | 45.1 | -0.241

Oc1ncc(F)c(O)n1 [5-fluorouracil]
Conditions | IC50 (cell viability) [nM]
BV-173 [15] | 3480
HEL [1] | 2300
HL-60 [14] | 1070
K-562 [7] | > 10000
KCL-22 [9] | 2680
KG-1 [8] | 4310
KU-812 [10] | > 10000
LAMA-84 [6] | 6310
ML-2 [4] | 2300
MOLM-13 [11] | 353
MV4-11 [3] | 435
Mono-Mac-6 [12] | 711
NOMO-1 [2] | 9600
SHI-1 [5] | 2690
THP-1 [13] | > 10000

cell viability [%]
Conditions | 1 nM | 10 nM | 100 nM | 1000 nM | 10000 nM
BV-173 [30] | 99 | 110 | 85.6 | 86.4 | 16.3
HEL [16] | 95.1 | 104 | 84.2 | 73.8 | 31.8
HL-60 [29] | 113 | 120 | 138 | 61.2 | 27.1
K-562 [22] | 101 | 114 | 91.5 | 108 | 68.9
KCL-22 [24] | 98.9 | 120 | 98.3 | 84.3 | 30.6
KG-1 [23] | 101 | 114 | 85.8 | 83.5 | 46.2
KU-812 [25] | 97.6 | 100 | 88.4 | 88 | 66.6
LAMA-84 [21] | 91.1 | 98.5 | 99.8 | 86.9 | 48.8
ML-2 [19] | 93 | 99.4 | 102 | 78.9 | 29.5
MOLM-13 [26] | 128 | 109 | 82.2 | 22.4 | 2.01
MV4-11 [18] | 96 | 111 | 85 | 26.3 | 1.31
Mono-Mac-6 [27] | 95.4 | 95.5 | 88.4 | 47.9 | 19.3
NOMO-1 [17] | 92.2 | 105 | 95.1 | 68.5 | 61.9
SHI-1 [20] | 91.6 | 110 | 102 | 70.9 | 44.6
THP-1 [28] | 101 | 111 | 99.3 | 97.8 | 63.3

NCc1ccc(-c2cccnc2)s1 [(5-Pyrid-3-YLTHIEN-2-YL)METHYLAMINE]
Conditions | IC50 (cell viability) [nM]
BV-173 [15] | > 10000
HEL [1] | > 10000
HL-60 [14] | > 10000
K-562 [7] | > 10000
KCL-22 [9] | > 10000
KG-1 [8] | > 10000
KU-812 [10] | > 10000
LAMA-84 [6] | > 10000
ML-2 [4] | > 10000
MOLM-13 [11] | > 10000
MV4-11 [3] | > 10000
Mono-Mac-6 [12] | > 10000
NOMO-1 [2] | > 10000
SHI-1 [5] | > 10000
THP-1 [13] | > 10000

cell viability [%]
Conditions | 1 nM | 10 nM | 100 nM | 1000 nM | 10000 nM
BV-173 [30] | 113 | 102 | 98.7 | 104 | 87.2
HEL [16] | 105 | 103 | 104 | 109 | 104
HL-60 [29] | 99.3 | 107 | 103 | 115 | 121
K-562 [22] | 92.7 | 122 | 96.1 | 90.4 | 94
KCL-22 [24] | 122 | 114 | 91.6 | 84.7 | 88.8
KG-1 [23] | 109 | 108 | 99.8 | 108 | 87.6
KU-812 [25] | 104 | 107 | 97.7 | 104 | 85.1
LAMA-84 [21] | 108 | 106 | 102 | 93 | 91.2
ML-2 [19] | 104 | 108 | 97.6 | 113 | 96.5
MOLM-13 [26] | 100 | 102 | 93.7 | 97.8 | 91.8
MV4-11 [18] | 91.6 | 123 | 104 | 110 | 89.6
Mono-Mac-6 [27] | 108 | 103 | 95.7 | 104 | 89
NOMO-1 [17] | 109 | 105 | 97.5 | 109 | 87.9
SHI-1 [20] | 107 | 115 | 105 | 97 | 100
THP-1 [28] | 109 | 111 | 99.6 | 104 | 93
